From US20210347823A1, “METHODS OF PHYSICOCHEMICAL-GUIDED PEPTIDE DESIGN AND NOVEL PEPTIDES DERIVED THEREFROM” (Massachusetts Institute of Technology, priority 2018, published 2021)

Legend:
[1] = test system: HEK293 human embryonic kidney cells; assay: Cytotoxicity assay (MTS); type: cell-based; conditions: for toxicity at 64 μmol L^−1: assay not stated; for Cytotoxicity: HEK293, 48 h, MTS, peptides 0-64 μmol L^−1
Description: FIGS. 7A-7B. Cytotoxicity of engineered peptides. FIG. 7A. Schematic of the experimental design for cytotoxicity assays of Pol-CP—NH2 and derivatives against HEK293 human embryonic kidney cells. Briefly, cells were cultured in DMEM medium supplemented with FBS and antibiotics at 37° C. and 5% CO2. FIG. 7B. Results obtained by seeding HEK293 50,000 cells and incubating with peptides' solution (0-64 μmol L^−1) at 37° C. for 48 h. Cell viability was measured by MTS assay. All experiments were performed in triplicate.
Cytotoxicity assays. Human embryonic kidney 293 (HEK 293) cells were cultured in Dulbecco's Modified Eagle Medium (DMEM) supplemented with 10% Fetal Bovine Serum (FBS) and 1% penicillin-streptomycin at 37° C. in 5% CO2. The day before treatment, 50,000 HEK 293 cells were seeded into each well in 96-well plates. The peptides were added at concentrations ranging from 0 to 64 ? mol L^−1 and 48 h after exposure, cell viability was measured by means of MTS (dimethylthiazol-carboxymethoxyphenyl-sulfophenyl-tetrazolium) assay. Experiments were performed in triplicate for each condition.

human red blood cells = assay: Hemolytic activity assay; type: cell-based; conditions: for HC50: concentration needed for 50% hemolysis, human RBC in PBS, room temperature, 1 h, 0.1-100 μmol L^−1; for hemolytic activity: range of concentrations evaluated 0-100 μmol L^−1
Description: FIGS. 6A-6B. Hemolysis and resistance to protease-mediated degradation of engineered peptides. FIG. 6A. Schematic of experimental design and hemolytic assay results of Pol-CP—NH2 and derivatives, where hemolytic activity was evaluated by incubating the peptides (0.1-100 μmol L^−1) with human red blood cells in PBS at room temperature for 1 h. Experiments were performed in triplicate, (*p<0.05). FIG. 6B. Resistance to degradation of Pol-CP—NH2 and analogs exposed to fetal bovine serum (FBS) proteases for 6 h. Experiments were done in triplicate.
Hemolytic Activity Assays. Human erythrocytes were collected and washed three times by centrifugation at 300×g with PBS (pH 7.4). After the last centrifugation, the cells were resuspended in PBS pH 7.4. Aliquots at a concentration of 0.1 to 100 ? mol L^−1 of the peptides were added to the 96-well microplate, where in each well containing 50 ? L of a suspension of erythrocytes to 0.4% in a phosphate saline buffer (10 mmol L^−1 Na2HPO4, 1.8 mmol L^−1 […], pH 7.4, 137 mmol L^−1 NaCl and 2.7 mmol L^−1KCl). After that, the samples were incubated at room temperature for 1 h. Hemolysis was determined by reading absorbance at 405 nm of each well in a bed of plates. 1% SDS in PBS solution was used as positive control (Shalel S. et al., J. Colloid Interface Sci. 252, 66-76 (2002); Love L. J. Cell. Comp. Physiol. 36, 133-148 (1950)) and as negative control was used PBS only. MHC was defined as the maximal non-hemolytic concentration.

[2] = Mouse body weight / toxicity in the skin infection model; type: in vivo, mice; conditions: for mouse body weight: peptides used at 64 mol L^−1 (so in the source), compared to untreated mice
Description: FIGS. 8A-8D. In vivo activity of Pol-CP—NH2 and its analogs. FIG. 8A. Schematic of the experimental design. Briefly, the back of mice was shaved and an abrasion was generated to damage the stratum corneum and the upper layer of the epidermis. Subsequently, an aliquot of 50 μL containing 5×10^7 CFU of P. aeruginosa in PBS was inoculated over each defined area. One day after the infection, peptides (4 μmol L^−1) were administered to the infected area. Animals were euthanized and the area of scarified skin was excised two and four days post-infection (FIG. 8B) homogenized using a bead beater for 20 minutes (25 Hz), and serially diluted for CFU quantification (****p<0.0001). FIG. 8C. Mouse body weight measurements throughout the experiment normalized by the body weight of non-infected mice. […] FIG. 8D. Longer experiment (four days) using a higher concentration (64 μmol L^−1) of peptides Pol-CP—NH2 and [Lys]'-Pol-CP—NH2 (****p<0.0001).
Scarification Skin Infection Mouse Model. P. aeruginosa strain PA14 was grown to an optical density at 600 nm (OD600) of 1 in tryptic soy broth (TSB) medium. Subsequently cells were washed twice with sterile PBS (pH 7.4, 13,000 rpm for 1 minute), and resuspended to a final concentration of 5×10^7 CFU/50 ? L. To generate skin infection, female CD-1 mice (6 weeks old) were anesthetized with isoflurane and had their backs shaved. A superficial linear skin abrasion was made with a needle in order to damage the stratum corneum and upper-layer of the epidermis. Five minutes after wounding, an aliquot of 50 ? L containing 5×10^7 CFU of bacteria in PBS was inoculated over each defined area containing the scratch with a pipette tip. One day after the infection, peptides were administered to the infected area. Animals were euthanized and the area of scarified skin was excised two and four days post-infection, homogenized using a bead beater for 20 minutes (25 Hz), and serially diluted for CFU quantification. Two independent experiments were performed with 4 mice per group in each condition. Statistical significance was assessed using a one-way ANOVA.

| Substance | toxicity at 64 μmol L^−1 [1] | Cytotoxicity [1] [µmol/L] | Cytotoxicity ([1]; listed as wild-type peptide) [µmol/L] | HC50 (human red blood cells) [µmol/L] | hemolytic activity (human red blood cells) | mouse body weight [2] | Cytotoxicity ([1]; listed as [Lys]^7-Pol-CP—NH2) [µmol/L] | cytotoxic concentration relative to MIC against P. aeruginosa ([1]; HEK293 cytotoxicity vs MIC) | hemolytic activity (concentration at which hemolytic) (human red blood cells; human red blood cells, range evaluated 0-100 μmol L^−1) [µmol/L] | toxicity to mice ([2]; single dose) |
| --- | --- | --- | --- | --- | --- | --- | --- | --- | --- | --- |
| H-ILGTILGLLKSL-NH2 [WT, ILGTILGLLKSL-NH2, reference compound] | toxic | 32.0 | 32 | 50.0 | hemolytic | did not change significantly |  |  |  |  |
| H-ILGTILKLLKSL-NH2 [Peptide 16, ILGTILKLLKSL-NH2] | toxic | 16.0 |  | 12.5 | hemolytic | did not change significantly | 16 | two- to four-fold higher | 12.5 | non-toxic |
